These are literature values, as cited in patent US11198893B2, “Method for producing omega 3 and omega 6 unsaturated fatty acid oxides” (Bizen Chemical Co., Ltd., priority 2016, dated 2021).

SMILES strings stand for the structures.

Turning to `CC/C=C\C[C@H](O)/C=C/C=C\C/C=C\C/C=C\C/C=C\CCC(=O)O` [17S-HDHA], in the series on obese mice, the “glucose tolerance and insulin resistance” value is “improve glucose tolerance and insulin resistance”; the inflammatory cytokine expression entry is “suppresses inflammatory cytokine expression”.
`CC/C=C\C[C@H](O)/C=C/C=C\C=C\[C@@H](O)C/C=C\C/C=C\CCC(=O)O` [protectin DX]: in the series with liver glucose synthesis, the glycometabolism entry is “action to promote glycometabolism” and the liver glucose synthesis result is reported as “action to suppress liver glucose synthesis”.
